Assay results taken from PubChem BioAssay (NCI).
Several values for one entry are separate records, joined by “and”; a condition that tells them apart may be missing. Equal entries are not always repeated.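 Assay format: 96-well plates, 48-hour exposure. GI50 = concentration required for 50% inhibition of growth. TGI marks complete inhibition of growth.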

Legend:
Assay in all cases: growth of human tumour cells (NCI), 48 h
A549 NSCLC = test system: A549 NSCLC
EKVX NSCLC = test system: EKVX NSCLC
LOX IMVI melanoma = test system: LOX IMVI melanoma
M14 melanoma = test system: M14 melanoma
OVCAR-5 ovarian = test system: OVCAR-5 ovarian
SF-539 CNS = test system: SF-539 CNS
SNB-75 CNS = test system: SNB-75 CNS
SW-620 colon = test system: SW-620 colon
T-47D breast = test system: T-47D breast
UO-31 renal = test system: UO-31 renal

COc1ccc(-c2ccc3ncc4c(c3c2)n(-c2ccc(N3CCNCC3)c(C(F)(F)F)c2)c(=O)n4C)cn1
GI50 (A549 NSCLC): < 0.01 µM and 0.00607 µM | TGI (A549 NSCLC): 0.153 µM and 0.329 µM | GI50 (EKVX NSCLC): < 0.01 µM and 0.00426 µM | TGI (EKVX NSCLC): 0.0379 µM and 0.258 µM | GI50 (LOX IMVI melanoma): < 0.01 µM and 0.00403 µM | TGI (LOX IMVI melanoma): 0.359 µM and 0.0882 µM | GI50 (M14 melanoma): 0.00455 µM | TGI (M14 melanoma): 0.0621 µM | GI50 (OVCAR-5 ovarian): < 0.0115 µM and 0.00752 µM | GI50 (SF-539 CNS): < 0.011 µM and 0.0132 µM | TGI (SF-539 CNS): 0.0606 µM and 0.0587 µM | GI50 (SNB-75 CNS): < 0.01 µM and 0.00263 µM | TGI (SNB-75 CNS): 0.0129 µM and 0.0255 µM | GI50 (SW-620 colon): 0.0103 µM and 0.0117 µM | TGI (SW-620 colon): 0.131 µM and 0.132 µM | GI50 (T-47D breast): < 0.01 µM and 0.00189 µM | TGI (T-47D breast): < 0.01 µM and 0.021 µM | GI50 (UO-31 renal): < 0.01 µM and 0.00417 µM | TGI (UO-31 renal): 0.196 µM and 0.0269 µM

Nc1ccc(-c2ccc(Nc3cc(S(=O)(=O)O)c(N)c4c3C(=O)c3ccccc3C4=O)cc2)c(S(=O)(=O)O)c1
TGI (A549 NSCLC): > 100 µM | TGI (EKVX NSCLC): > 100 µM | TGI (LOX IMVI melanoma): > 100 µM | TGI (M14 melanoma): > 100 µM | TGI (OVCAR-5 ovarian): > 100 µM | TGI (SF-539 CNS): > 100 µM | TGI (SNB-75 CNS): > 100 µM | TGI (SW-620 colon): > 100 µM | TGI (T-47D breast): > 100 µM | TGI (UO-31 renal): > 100 µM

CC(C)[C@](O)(C(=O)OCC1=CC[N+]2([O-])CC[C@@H](O)[C@@H]12)[C@H](C)O (stereo not given in full)
TGI (A549 NSCLC): > 10000 µM | TGI (EKVX NSCLC): > 10000 µM | TGI (LOX IMVI melanoma): > 10000 µM | TGI (M14 melanoma): > 10000 µM | TGI (OVCAR-5 ovarian): > 10000 µM | TGI (SF-539 CNS): > 10000 µM | TGI (SNB-75 CNS): > 10000 µM | TGI (SW-620 colon): > 10000 µM | TGI (T-47D breast): > 10000 µM | TGI (UO-31 renal): > 10000 µM

C=CC[N+]1(CCO)CCN=C1CCCCCCCCCCCCC (stereo not given)
GI50 (A549 NSCLC): 1.83 µM | TGI (A549 NSCLC): 3.3 µM | GI50 (EKVX NSCLC): 1.62 µM | TGI (EKVX NSCLC): 2.97 µM | GI50 (LOX IMVI melanoma): 1.38 µM | TGI (LOX IMVI melanoma): 2.68 µM | GI50 (M14 melanoma): 1.64 µM | TGI (M14 melanoma): 2.99 µM | GI50 (SNB-75 CNS): 1.56 µM | TGI (SNB-75 CNS): 2.9 µM | GI50 (SW-620 colon): 1.63 µM | TGI (SW-620 colon): 2.98 µM | GI50 (T-47D breast): 1.65 µM | TGI (T-47D breast): 3.47 µM | GI50 (UO-31 renal): 1.18 µM | TGI (UO-31 renal): 2.57 µM

CSC1=Nc2c(c(C)c(-c3ccccc3)n2CCCCl)C2=NC(=O)CN12
GI50 (A549 NSCLC): 7.68 µM | TGI (A549 NSCLC): 65.8 µM | GI50 (EKVX NSCLC): 6.89 µM | TGI (EKVX NSCLC): 31 µM | GI50 (LOX IMVI melanoma): 4.13 µM | TGI (LOX IMVI melanoma): 17.6 µM | GI50 (M14 melanoma): 3.32 µM | TGI (M14 melanoma): 15.2 µM | GI50 (OVCAR-5 ovarian): 11.6 µM | TGI (OVCAR-5 ovarian): 37.8 µM | GI50 (SF-539 CNS): 3.42 µM | TGI (SF-539 CNS): 14 µM | GI50 (SNB-75 CNS): 2.83 µM | TGI (SNB-75 CNS): 11.6 µM | GI50 (SW-620 colon): 4.79 µM | TGI (SW-620 colon): 53.5 µM | GI50 (T-47D breast): 2.63 µM | TGI (T-47D breast): 10.9 µM | GI50 (UO-31 renal): 10.5 µM | TGI (UO-31 renal): 28.6 µM

Cc1coc2c1CC1OC1(C)CCC1OC1(C)C2 (stereo not given)
TGI (A549 NSCLC): > 100 µM | TGI (EKVX NSCLC): > 100 µM | TGI (LOX IMVI melanoma): > 100 µM | TGI (M14 melanoma): > 100 µM | TGI (OVCAR-5 ovarian): > 100 µM | TGI (SF-539 CNS): > 100 µM | TGI (SNB-75 CNS): > 100 µM | TGI (SW-620 colon): > 100 µM | TGI (T-47D breast): > 100 µM | TGI (UO-31 renal): > 100 µM

COC1=C(C)C(=O)C2=C(C1=O)C(CO)N1C(C#N)C3CC4C(C1C2N1CCOC41)N3C (stereo not given)
GI50 (A549 NSCLC): 0.0375 µM | TGI (A549 NSCLC): 7.84 µM and 11.1 µM and 11.8 µM | GI50 (EKVX NSCLC): 0.00438 µM and < 0.0144 µM | GI50 (LOX IMVI melanoma): 0.00204 µM | TGI (OVCAR-5 ovarian): 1.09 µM and 0.587 µM and 1.98 µM | GI50 (SNB-75 CNS): 0.0669 µM | TGI (SNB-75 CNS): 0.141 µM and 0.226 µM and 0.338 µM | GI50 (SW-620 colon): 0.000811 µM | TGI (SW-620 colon): 1.41 µM and 1.16 µM and 10.6 µM | GI50 (T-47D breast): 0.00033 µM and < 0.0144 µM

C=CC(=O)NCCOc1cccc(Nc2cc(NCCCNC(=O)C3CCC3)c(Br)cn2)c1
GI50 (A549 NSCLC): 0.881 µM | TGI (A549 NSCLC): 14.7 µM | GI50 (EKVX NSCLC): 2.31 µM | TGI (EKVX NSCLC): 22.5 µM | GI50 (LOX IMVI melanoma): 0.776 µM | TGI (LOX IMVI melanoma): 5.4 µM | GI50 (M14 melanoma): 1.79 µM | TGI (M14 melanoma): 7.86 µM | GI50 (OVCAR-5 ovarian): 1.84 µM | TGI (OVCAR-5 ovarian): 10.5 µM | GI50 (SF-539 CNS): 0.568 µM | TGI (SF-539 CNS): 2.21 µM | GI50 (SNB-75 CNS): 0.252 µM | TGI (SNB-75 CNS): 1.38 µM | GI50 (SW-620 colon): 0.904 µM | TGI (SW-620 colon): 6.53 µM | GI50 (T-47D breast): 4.49 µM | TGI (T-47D breast): 22.7 µM | GI50 (UO-31 renal): 0.372 µM | TGI (UO-31 renal): 1.11 µM
